How the values were obtained:
BV-2 = assay: Anti-neuroinflammatory activity against LPS-stimulated C57BL/6 mouse BV-2 cells assessed as inhibition of NO release at 30 uM preincubated with compound for 4 hrs followed by LPS addition and measured after 24 hrs by Griess reagent based assay relative to control; type: functional; conditions: C57BL/6, BV-2, time 28 hrs
[1] = Cytotoxicity against C57BL/6 mouse BV-2 cells assessed as survival rate at 30 uM incubated for 24 hrs by MTT assay relative to control; type: toxicity, cell-based; conditions: read-out: Survival

CCN1C[C@]2(OC(=O)c3ccccc3NC(=O)C3CCCC3)CC[C@H](OC)[C@]34C1[C@@H](C[C@H]23)[C@@]1(O)C[C@H](OC)[C@H]2C[C@@H]4[C@]1(O)[C@H]2OC
inhibition at 30 µM (BV-2): 37.9%
viability at 24 h, 30 µM [1]: 107%

CCN1C[C@]2(OC(=O)c3ccccc3NC(=O)c3ccc(Cl)cc3)CC[C@H](OC)[C@]34C1[C@@H](C[C@H]23)[C@@]1(O)C[C@H](OC)[C@H]2C[C@@H]4[C@]1(O)[C@H]2OC
inhibition at 30 µM (BV-2): 32.3%
viability at 24 h, 30 µM [1]: 105%

CCCCC(CC)C(=O)Nc1ccccc1C(=O)O[C@@]12CC[C@H](OC)[C@]34C([C@@H](C[C@H]13)[C@@]1(O)C[C@H](OC)[C@H]3C[C@@H]4[C@]1(O)[C@H]3OC)N(CC)C2 (some centres undefined)
inhibition at 30 µM (BV-2): 38.2%
viability at 24 h, 30 µM [1]: 95.9%

CCN1C[C@]2(OC(=O)c3ccccc3NC(=O)S(=O)(=O)c3cccc(OC)c3)CC[C@H](OC)[C@]34C1[C@@H](C[C@H]23)[C@@]1(O)C[C@H](OC)[C@H]2C[C@@H]4[C@]1(O)[C@H]2OC
inhibition at 30 µM (BV-2): 23.5%
viability at 24 h, 30 µM [1]: 102%

CCN1C[C@]2(OC(=O)c3ccccc3NC(=O)S(=O)(=O)c3ccc(Cl)cc3F)CC[C@H](OC)[C@]34C1[C@@H](C[C@H]23)[C@@]1(O)C[C@H](OC)[C@H]2C[C@@H]4[C@]1(O)[C@H]2OC
inhibition at 30 µM (BV-2): 14.9%
viability at 24 h, 30 µM [1]: 99.8%

CCN1C[C@]2(COC(=O)c3ccccc3NS(=O)(=O)c3ccc(Br)s3)CC[C@H](OC)[C@]34C1[C@@H](C[C@H]23)[C@@]1(O)C[C@H](OC)[C@H]2C[C@@H]4[C@]1(O)[C@H]2OC
inhibition at 30 µM (BV-2): 34.7%
viability at 24 h, 30 µM [1]: 97.8%

CCN1C[C@]2(OC(=O)c3ccccc3NC(=O)S(=O)(=O)c3cccc(C)c3)CC[C@H](OC)[C@]34C1[C@@H](C[C@H]23)[C@@]1(O)C[C@H](OC)[C@H]2C[C@@H]4[C@]1(O)[C@H]2OC
inhibition at 30 µM (BV-2): 46.5%
viability at 24 h, 30 µM [1]: 106%

CCN1C[C@]2(OC(=O)c3ccccc3NC(=O)c3ccc(I)cc3)CC[C@H](OC)[C@]34C1[C@@H](C[C@H]23)[C@@]1(O)C[C@H](OC)[C@H]2C[C@@H]4[C@]1(O)[C@H]2OC
inhibition at 30 µM (BV-2): 36.1%
viability at 24 h, 30 µM [1]: 100%

CCN1C[C@]2(OC(=O)c3ccccc3NC(=O)S(=O)(=O)c3ccc(OC)cc3)CC[C@H](OC)[C@]34C1[C@@H](C[C@H]23)[C@@]1(O)C[C@H](OC)[C@H]2C[C@@H]4[C@]1(O)[C@H]2OC
inhibition at 30 µM (BV-2): 10.8%
viability at 24 h, 30 µM [1]: 92.4%

CCN1C[C@]2(OC(=O)c3ccccc3NC(=O)S(=O)(=O)c3cc(Br)c(Cl)s3)CC[C@H](OC)[C@]34C1[C@@H](C[C@H]23)[C@@]1(O)C[C@H](OC)[C@H]2C[C@@H]4[C@]1(O)[C@H]2OC
inhibition at 30 µM (BV-2): 29.4%
viability at 24 h, 30 µM [1]: 94.3%

CCN1C[C@]2(OC(=O)c3ccccc3NC(=O)S(=O)(=O)c3cccc(Br)c3)CC[C@H](OC)[C@]34C1[C@@H](C[C@H]23)[C@@]1(O)C[C@H](OC)[C@H]2C[C@@H]4[C@]1(O)[C@H]2OC
inhibition at 30 µM (BV-2): 10%
viability at 24 h, 30 µM [1]: 102%

CCN1C[C@]2(OC(=O)c3ccccc3NC(=O)CC(C)C)CC[C@H](OC)[C@]34C1[C@@H](C[C@H]23)[C@@]1(O)C[C@H](OC)[C@H]2C[C@@H]4[C@]1(O)[C@H]2OC
inhibition at 30 µM (BV-2): 16.7%
viability at 24 h, 30 µM [1]: 102%

CCN1C[C@]2(OC(=O)c3ccccc3NC(=O)S(=O)(=O)c3ccc(OCc4ccccc4)cc3)CC[C@H](OC)[C@]34C1[C@@H](C[C@H]23)[C@@]1(O)C[C@H](OC)[C@H]2C[C@@H]4[C@]1(O)[C@H]2OC
inhibition at 30 µM (BV-2): 21.3%
viability at 24 h, 30 µM [1]: 102%

CCN1C[C@]2(OC(=O)c3ccccc3NC(=O)S(=O)(=O)c3cc(Cl)ccc3F)CC[C@H](OC)[C@]34C1[C@@H](C[C@H]23)[C@@]1(O)C[C@H](OC)[C@H]2C[C@@H]4[C@]1(O)[C@H]2OC
inhibition at 30 µM (BV-2): 36.1%
viability at 24 h, 30 µM [1]: 95.1%

CCCCOC(=O)c1ccccc1NS(=O)(=O)c1ccc(Br)s1
inhibition at 30 µM (BV-2): 34.6%
viability at 24 h, 30 µM [1]: 104%

CCO/C=C/C(=O)Nc1ccccc1C(=O)O[C@@]12CC[C@H](OC)[C@]34C([C@@H](C[C@H]13)[C@@]1(O)C[C@H](OC)[C@H]3C[C@@H]4[C@]1(O)[C@H]3OC)N(CC)C2
inhibition at 30 µM (BV-2): 28.7%
viability at 24 h, 30 µM [1]: 110%

CCN1C[C@]2(OC(=O)c3ccccc3NC(=O)S(=O)(=O)c3ccc(F)cc3C)CC[C@H](OC)[C@]34C1[C@@H](C[C@H]23)[C@@]1(O)C[C@H](OC)[C@H]2C[C@@H]4[C@]1(O)[C@H]2OC
inhibition at 30 µM (BV-2): 32.2%
viability at 24 h, 30 µM [1]: 92.7%

CCN1C[C@]2(OC(=O)c3ccccc3NC(=O)S(=O)(=O)c3cc(OC)ccc3OC)CC[C@H](OC)[C@]34C1[C@@H](C[C@H]23)[C@@]1(O)C[C@H](OC)[C@H]2C[C@@H]4[C@]1(O)[C@H]2OC
inhibition at 30 µM (BV-2): 26.3%
viability at 24 h, 30 µM [1]: 102%

CCCCOC(=O)c1ccccc1NC(=O)c1ccc(CC)cc1
inhibition at 30 µM (BV-2): 30.4%
viability at 24 h, 30 µM [1]: 103%

CCN1C[C@]2(OC(=O)c3ccccc3NC(=O)S(=O)(=O)c3ccc(-c4ccccc4)cc3)CC[C@H](OC)[C@]34C1[C@@H](C[C@H]23)[C@@]1(O)C[C@H](OC)[C@H]2C[C@@H]4[C@]1(O)[C@H]2OC
inhibition at 30 µM (BV-2): 41.9%
viability at 24 h, 30 µM [1]: 102%

CCN1C[C@]2(OC(=O)c3ccccc3NC(=O)S(=O)(=O)c3cccc4cccnc34)CC[C@H](OC)[C@]34C1[C@@H](C[C@H]23)[C@@]1(O)C[C@H](OC)[C@H]2C[C@@H]4[C@]1(O)[C@H]2OC
inhibition at 30 µM (BV-2): 46.2%
viability at 24 h, 30 µM [1]: 103%

CCC(=O)Nc1ccccc1C(=O)O[C@@]12CC[C@H](OC)[C@]34C([C@@H](C[C@H]13)[C@@]1(O)C[C@H](OC)[C@H]3C[C@@H]4[C@]1(O)[C@H]3OC)N(CC)C2
inhibition at 30 µM (BV-2): 19.1%
viability at 24 h, 30 µM [1]: 96.1%

CCN1C[C@]2(OC(=O)c3ccccc3NC(=O)S(=O)(=O)CC)CC[C@H](OC)[C@]34C1[C@@H](C[C@H]23)[C@@]1(O)C[C@H](OC)[C@H]2C[C@@H]4[C@]1(O)[C@H]2OC
inhibition at 30 µM (BV-2): 12.5%
viability at 24 h, 30 µM [1]: 106%

CCN1C[C@]2(OC(=O)c3ccccc3NC(=O)c3ccccc3N(C)C)CC[C@H](OC)[C@]34C1[C@@H](C[C@H]23)[C@@]1(O)C[C@H](OC)[C@H]2C[C@@H]4[C@]1(O)[C@H]2OC
inhibition at 30 µM (BV-2): 34.7%
viability at 24 h, 30 µM [1]: 101%

CCCCOC(=O)c1ccccc1NC(=O)c1ccc(Cl)s1
inhibition at 30 µM (BV-2): 42.8%
viability at 24 h, 30 µM [1]: 110%

CCN1C[C@]2(OC(=O)c3ccccc3NC(=O)c3ccc(S(C)(=O)=O)cc3)CC[C@H](OC)[C@]34C1[C@@H](C[C@H]23)[C@@]1(O)C[C@H](OC)[C@H]2C[C@@H]4[C@]1(O)[C@H]2OC
inhibition at 30 µM (BV-2): 20%
viability at 24 h, 30 µM [1]: 103%

CCN1C[C@]2(OC(=O)c3ccccc3NC(=O)S(=O)(=O)c3ccc(Cl)nc3)CC[C@H](OC)[C@]34C1[C@@H](C[C@H]23)[C@@]1(O)C[C@H](OC)[C@H]2C[C@@H]4[C@]1(O)[C@H]2OC
inhibition at 30 µM (BV-2): 33.5%
viability at 24 h, 30 µM [1]: 104%

CCN1C[C@]2(OC(=O)c3ccccc3NC(=O)S(=O)(=O)c3ccc(OC)cc3OC)CC[C@H](OC)[C@]34C1[C@@H](C[C@H]23)[C@@]1(O)C[C@H](OC)[C@H]2C[C@@H]4[C@]1(O)[C@H]2OC
inhibition at 30 µM (BV-2): 20.9%
viability at 24 h, 30 µM [1]: 99.7%

CCOc1ccc(C(=O)Nc2ccccc2C(=O)O[C@@]23CC[C@H](OC)[C@]45C([C@@H](C[C@H]24)[C@@]2(O)C[C@H](OC)[C@H]4C[C@@H]5[C@]2(O)[C@H]4OC)N(CC)C3)cc1
inhibition at 30 µM (BV-2): 53.6%
viability at 24 h, 30 µM [1]: 101%

CCCCOC(=O)c1ccccc1NS(=O)(=O)c1cccc(F)c1
inhibition at 30 µM (BV-2): 50.9%
viability at 24 h, 30 µM [1]: 106%

CCN1C[C@]2(OC(=O)c3ccccc3NC(=O)S(=O)(=O)c3ccc(F)cc3)CC[C@H](OC)[C@]34C1[C@@H](C[C@H]23)[C@@]1(O)C[C@H](OC)[C@H]2C[C@@H]4[C@]1(O)[C@H]2OC
inhibition at 30 µM (BV-2): 40.6%
viability at 24 h, 30 µM [1]: 109%

CCN1C[C@]2(OC(=O)c3ccccc3NC(=O)S(C)(=O)=O)CC[C@H](OC)[C@]34C1[C@@H](C[C@H]23)[C@@]1(O)C[C@H](OC)[C@H]2C[C@@H]4[C@]1(O)[C@H]2OC
inhibition at 30 µM (BV-2): 5.1%
viability at 24 h, 30 µM [1]: 102%

CCN1C[C@]2(OC(=O)c3ccccc3NC(=O)S(=O)(=O)c3ccc(C#N)cc3)CC[C@H](OC)[C@]34C1[C@@H](C[C@H]23)[C@@]1(O)C[C@H](OC)[C@H]2C[C@@H]4[C@]1(O)[C@H]2OC
inhibition at 30 µM (BV-2): 38.8%
viability at 24 h, 30 µM [1]: 103%

CCN1C[C@]2(OC(=O)c3ccccc3NC(=O)S(=O)(=O)c3ccccc3C#N)CC[C@H](OC)[C@]34C1[C@@H](C[C@H]23)[C@@]1(O)C[C@H](OC)[C@H]2C[C@@H]4[C@]1(O)[C@H]2OC
inhibition at 30 µM (BV-2): 27.5%
viability at 24 h, 30 µM [1]: 101%

CCN1C[C@]2(OC(=O)c3ccccc3NC(=O)S(=O)(=O)c3ccc(Cl)cc3)CC[C@H](OC)[C@]34C1[C@@H](C[C@H]23)[C@@]1(O)C[C@H](OC)[C@H]2C[C@@H]4[C@]1(O)[C@H]2OC
inhibition at 30 µM (BV-2): 39.2%
viability at 24 h, 30 µM [1]: 100%

CCN1C[C@]2(OC(=O)c3ccccc3NC(=O)S(=O)(=O)/C=C/c3ccccc3)CC[C@H](OC)[C@]34C1[C@@H](C[C@H]23)[C@@]1(O)C[C@H](OC)[C@H]2C[C@@H]4[C@]1(O)[C@H]2OC
inhibition at 30 µM (BV-2): 29.4%
viability at 24 h, 30 µM [1]: 108%

CCN1C[C@]2(OC(=O)c3ccccc3NC(=O)c3cccc(Br)c3)CC[C@H](OC)[C@]34C1[C@@H](C[C@H]23)[C@@]1(O)C[C@H](OC)[C@H]2C[C@@H]4[C@]1(O)[C@H]2OC
inhibition at 30 µM (BV-2): 44.1%
viability at 24 h, 30 µM [1]: 100%
